According to patent publication US8334261B2, “Osteopenia animal model” (Oriental Yeast Co., Ltd., priority 2006, dated 2012):

Assays:
[1] = test system: 7-week-old male C57BL/6N mice; test: Evaluation of male mice; format: in vivo, mouse
Procedure: GST-RANKL was intraperitoneally administered 3 times to groups of 7-week-old male C57BL/6N mice at 1 mg/kg every 24 hours. The femur and serum were collected from each mouse 1.5 hours after the 3rd administration and compared with those of the PBS administration group. Regarding bone metabolism markers, TRAP-5b, calcium (Ca), and alkaline phosphatase (ALP) in the serum were measured. Each femur was subjected to bone density measurement with pQCT and image analysis with micro CT.

[2] = test system: GST-RANKL-administered 7-week-old female C57BL/6 mice; test: Comparison of a plurality of bisphosphonates in GST-RANKL mice; format: in vivo, mouse; details: for femur bone density decrease vs PBS group: GST-RANKL 1 mg/kg 3 times
Procedure: GST-RANKL was intraperitoneally administered 3 times at 1 mg/kg every 24 hours. The femur, tibia, and serum were collected from each mouse 1.5 hours after the 3rd GST-RANKL administration. Measurement of TRAP-5b, calcium (Ca), and alkaline phosphatase (ALP) in the serum was carried out. Each femur was subjected to bone density measurement with pQCT and image analysis with micro CT.

[3] = test system: 7-week-old female C57BL/6N mice; test: RANKL administration test (213, 426, 852 nmol GST-RANKL); format: in vivo, mouse
Procedure: GST-RANKL was separately administered 3 times via an intraperitoneal route to groups of 7-week-old female C57BL/6N mice (10 individuals each) at doses of 213 nmol, 426 nmol, and 852 nmol every 24 hours. Exsanguination was performed 1.5 hours after the 3rd administration. A group to which PBS was administered in the same manner as above was used as a control group for comparison. 213 nmol, 426 nmol and 852 nmol of GST-RANKL correspond to 10 μg, 20 μg and 40 μg, respectively.
The exsanguinated blood was subjected to measurement of serum bone resorption parameters (calcium, CTx, TRAP-5b) and serum osteogenesis parameters (osteocalcin and alkaline phosphatase (ALP)). Calcium was measured by the OCPC method (WAKO, 272-21801). CTx (Nordic Bioscience Diagnostics), TRAP-5b (IDS Ltd, SB-TR103), and osteocalcin (Biomedical Technologies Inc.) were measured by ELISA. ALP was measured by the Bessey-Lowry method (WAKO, 274-04401).
The femur and the tibia were collected from each exsanguinated mouse. Regarding the femur, the cancellous bone was subjected to bone density measurement with the use of pQCT at points 0.6 mm, 0.8 mm, and 1.0 mm from the distal growth plate on the proximal side. Measurement values were compared with those for a control group by the Dunnett method for testing.

mice = test: Double-dose administration of GST-RANKL at 0.5, 1 and 2 mg/kg; format: in vivo, mouse; details: 2 mg/kg compared with 0.5 mg/kg and 1 mg/kg
[4] = test system: 7-week-old female Fischer rats; test: Examination with Fischer rats; format: in vivo, rat
Procedure: GST-RANKL was intraperitoneally administered 3 times to 7-week-old female Fischer rats at 1 mg/kg every 24 hours. The serum and femur were collected from each mouse 1.5 hours after the 3rd administration, followed by comparison with the PBS administration group. The serum of each mouse was subjected to measurement (with the use of an SB-TR102 kit, IDS Ltd.) of the Ca and TRAP-5b concentrations serving as bone resorption markers and the ALP concentration serving as an osteogenesis marker. Each femur was subjected to bone density measurement with pQCT and image analysis with micro CT.

[5] = test system: 7-week-old female C57BL/6N mice; test: Bone healing after GST-RANKL administration; format: in vivo, mouse
Procedure: GST-RANKL was intraperitoneally administered twice to groups of 7-week-old female C57BL/6N mice at 1 mg/kg every 24 hours. The time point 24 hours after the 2nd administration was designated as “week 0.” The serum and femur were collected from each mouse separately at weeks 0, 1, 4, 6, and 8 and compared with those collected from mice subjected to PBS administration in a similar manner. Regarding bone metabolism markers, TRAP-5b, calcium (Ca), and alkaline phosphatase (ALP) in the serum were measured. Each femur was subjected to bone density measurement with pQCT and image analysis with micro CT.
The bone density was measured at points 0.6 mm, 0.8 mm, 1.0 mm from the distal growth plate on the proximal side of the femur with the use of pQCT.

[6] = test system: GST-RANKL-administered 7-week-old female C57BL/6 mice; test: Drug evaluation with bisphosphonate (risedronate) in GST-RANKL mice; format: in vivo, mouse; details: for femur bone density decrease vs PBS group: RANKL alone
Procedure: Risedronate was separately administered via a subcutaneous route to groups of 7-week-old female C57BL/6 mice at doses of 3, 10, and 30 μg/kg every 24 hours from the day before GST-RANKL administration to the end of the experimentation. The femur and serum were collected from each mouse 1.5 hours after the 3rd administration of GST-RANKL. Measurement of TRAP-5b, calcium (Ca), and alkaline phosphatase (ALP) was carried out. Each femur was subjected to bone density measurement and image analysis with the use of pQCT.

Substance: GST-RANKL: fused protein of Glutathione S-transferase with human RANKL residues 140-317, expressed in Escherichia coli, 47.0 kDa
- serum ALP concentration ([1]; 1 mg/kg i.p. 3 times): no changes
- serum TRAP-5b concentration increase ([1]; 1 mg/kg i.p. 3 times): approximately 65%
- serum Ca concentration increase vs PBS group ([1]; 1 mg/kg i.p. 3 times, no significant difference): 7%
- femur bone density decrease ([1]; 0.6 mm): approximately 6%
- femur bone density decrease ([1]; 0.8 mm): approximately 10%
- femur bone density decrease ([1]; 1.0 mm): approximately 15%
- femur bone density decrease vs PBS group ([2]; 0.6 mm): 7%
- femur bone density decrease vs PBS group ([2]; 0.8 mm): 13%
- femur bone density decrease vs PBS group ([2]; 1.0 mm): 18%
- serum TRAP-5b concentration increase ([2]; GST-RANKL 1 mg/kg i.p. 3 times, no significant difference): approximately 40%
- serum CTx concentration ([3]; 213 nmol): No significant increases
- serum TRAP-5b concentration ([3]; 213 nmol): No significant increases
- serum calcium concentration ([3]; 213 nmol i.p. 3 times, p<0.05): significantly increased
- femur bone density decrease (pQCT) ([3]; 213 nmol, 0.6 mm): 11%
- femur bone density decrease (pQCT) ([3]; 213 nmol, 0.8 mm): 23%
- femur bone density decrease (pQCT) ([3]; 213 nmol, 1.0 mm): 23%
- femur bone density decrease (pQCT) ([3]; 426 nmol, 0.6 mm): 19%
- femur bone density decrease (pQCT) ([3]; 426 nmol, 0.8 mm): 29%
- femur bone density decrease (pQCT) ([3]; 426 nmol, 1.0 mm): 31%
- serum CTx concentration ([3]; 426 nmol, p<0.01): significant increases
- serum TRAP-5b concentration ([3]; 426 nmol, p<0.01): significant increases
- serum calcium concentration ([3]; 426 nmol, p<0.01): obviously increased
- femur bone density decrease (pQCT) ([3]; 852 nmol, 0.6 mm): 30%
- femur bone density decrease (pQCT) ([3]; 852 nmol, 0.8 mm): 42%
- femur bone density decrease (pQCT) ([3]; 852 nmol, 1.0 mm): 44%
- serum CTx concentration ([3]; 852 nmol, p<0.01): significant increases
- serum TRAP-5b concentration ([3]; 852 nmol, p<0.01): significant increases
- serum calcium concentration ([3]; 852 nmol, p<0.01): obviously increased
- image analysis with micro CT ([3]; 213 to 852 nmol): dose-dependent decreases in the bone density
- bone mass decreasing effects (mice): promoted
- serum ALP concentration vs control ([4]; 1 mg/kg i.p. 3 times): no changes
- serum Ca concentration vs control ([4]; 1 mg/kg i.p. 3 times): no changes
- serum TRAP-5b concentration vs control ([4]; 1 mg/kg i.p. 3 times): no changes
- femur bone density decrease ([4]; 3 mm from the distal growth plate): approximately 20%
- serum Ca concentration ([5]; 1 mg/kg i.p. twice, weeks 0 to 8): no significant difference
- femur bone density decreased to, vs PBS group ([5]; 0.6 mm, week 0): 5%
- femur bone density decreased to, vs PBS group ([5]; 0.6 mm, week 1): 7%
- femur bone density decreased to, vs PBS group ([5]; 0.6 mm, week 4): 9%
- femur bone density decreased to, vs PBS group ([5]; 0.8 mm, week 0): 10%
- femur bone density decreased to, vs PBS group ([5]; 0.8 mm, week 1): 11%
- femur bone density decreased to, vs PBS group ([5]; 0.8 mm, week 4): 15%
- femur bone density decreased to, vs PBS group ([5]; 1.0 mm, week 0): 16%
- femur bone density decreased to, vs PBS group ([5]; 1.0 mm, week 1): 13%
- femur bone density decreased to, vs PBS group ([5]; 1.0 mm, week 4): 11%
- serum TRAP-5b concentration, fold as high as PBS group ([5]; 24 hours after RANKL administration (0 week)): approximately 3 fold
- femur bone density vs PBS group ([5]; week 6): returned to a level comparable to that for the PBS administration group
- serum ALP concentration, fold as high ([5]; weeks 0 and 1): approximately 1.4 fold
- serum Ca concentration ([6]; GST-RANKL 3 times): did not obviously vary
- serum TRAP-5b concentration, fold as high ([6]; RANKL administration): approximately 2 fold
- femur bone density decrease vs PBS group ([6]; 0.6 mm): 27%
- femur bone density decrease vs PBS group ([6]; 0.8 mm): 35%
- femur bone density decrease vs PBS group ([6]; 1.0 mm): 35%
